# Reference: US9857357B2, “Method of screening modulator of XKR8” (KYOTO UNIVERSITY, priority 2012, dated 2018)
# Key:
# Assay type in all cases: cell-based, human
# [1] = test system: CpG sites of the hXkr8 gene promoter in PLB-985 cells; test: Bisulfite genomic sequencing of CpG sites between -239 and +7 of the hXkr8 gene; conditions: 0.5 μM DAC, day 7
# Protocol: (§1) To treat human PLB-985 cells with 5-aza-2′-deoxycytidine (DAC, Sigma-Aldrich), 1.0×10^6 cells in 10 ml of RPMI containing 10% FCS were incubated with 0.5 μM DAC for up to 7 days. Since DAC is an unstable compound, the medium containing DAC was changed every 24 hours. After DAC treatment, the cells were divided into three portions: one portion for FACS to analyze the PtdSer exposure, one for real-time RT-PCR for Xkr8 gene expression, and one for the methylation-specific PCR analysis^67. For the bisulfite genomic sequencing, the DNA was modified with bisulfite using a kit (MethyEasy Xceed, Human Genetic Signatures). In brief, 3 μg DNA was denatured by incubation at 37° C. for 15 min in 0.3 M NaOH, and treated with sodium bisulfite according to the protocol provided by the supplier except that the incubation time was changed to 90 min. The modified DNA was denatured at 95° C. for 20 min, and amplified by PCR using primers specific for the treated DNA ([…] (SEQ ID NO; 20) and […] (SEQ ID NO; 21)). PCR was carried out with EpiTaq HS polymerase (Takara Bio) for 7-40 cycles, and the product was cloned in a pGEM-Teasy vector for sequencing.
# PLB-985 cells = test: PtdSer exposure (Cy5-Annexin V staining) of DAC-treated PLB-985 cells after UV irradiation; conditions: PLB-985 cells treated with DAC for five days, Cy5-Annexin V and PI
# Protocol: Apoptosis was induced by treating cells with FasL or staurosporine, or exposing them to UV. In brief, 5×10^5 cells in 500 μl of culture medium were incubated at 37° C. with 10-400 units/ml hFasL for 1.2-2.0 h or with 10 μM staurosporine for 1.5-4.0 h. For UV exposure, 1×10^6 cells in 2 ml of PBS were exposed to 500-2000 J/m UV radiation (254 nm) in a StrataLinker UV oven (Stratagene), and incubated at 37° C. for 1.5-2.0 h in 4 ml of RPMI1640 containing 10% FCS. To monitor Ca^2÷-ionophore-induced PtdSer exposure, cells (5×10^5 cells) in 500 μl of Annexin V staining buffer (10 mM Hepes-NaOH buffer [pH7.4] containing 140 mM NaCl and 2.5 mM CaCl2) were incubated at 20° C. for 3 min, treated with 3.0-10 μM A23187, and analyzed with FACSAria at 20° C.
# To detect PtdSer and PtdEtn exposed on the cell surface, cells were stained on ice for 15 min with 2500-5000-fold diluted Cy5-Annexin V (Biovision) or 800-fold diluted-biotin-Ro09-0198^66 followed by 1.0 μg/ml APC-streptavidin in Annexin V staining buffer in the presence of 5 μg/ml propidium iodide (PI), and analyzed by FACSAria or FACSCalibur (BD Biosciences). […] Aliquots (150 μl) were mixed with 150 μl HBSS containing 5 μg/ml fatty-acid free BSA (Sigma-Aldrich) and 500 nM Sytoxblue (Molecular Probes), and analyzed by FACSAria. […]
# [2] = test system: Xkr8 mRNA in PLB-985 cells; test: Real-time RT-PCR of Xkr8 mRNA in DAC-treated PLB-985 cells
# Protocol: as §1, with “sequencing. […]” for “sequencing.”
# The specific mRNA was quantified at the point where the LightCycler System detected the upstroke of the exponential phase of PCR accumulation with the respective linearized plasmid DNA as reference.
smiles,measurement,setting,value
"Nc1ncn([C@H]2C[C@H](O)[C@@H](CO)O2)c(=O)n1 [DAC, 5-aza-2′-deoxycytidine]",Methylation status of the 23 CpG sites between -239 and +7,[1],highly demethylated
same,PtdSer exposure in response to UV irradiation,PLB-985 cells,gained the ability to expose PtdSer
same,Change of Xkr8 mRNA level,[2]; 0.5 μM DAC for up to 7 days,gradually increased
same,Xkr8 mRNA level relative to that in Namalwa cells,"[2]; 0.5 μM DAC, day 7",about 91%
